# From patent US10786476B2, “Combination therapy” (IMBRIA PHARMACEUTICALS, INC., priority 2016, dated 2020)
# Entries after “also recorded” stand apart in the source; their conditions may differ. Read-outs that look alike come from different tables or passages of the source.
# Assay: Viscosity / flow property test (flow out of a vial, be swirled, direct drinking)
# Assay type: physicochemical
# Description: Properties of provided compounds and compositions can be readily tested, including using a number of methods widely known and practiced in the art, in accordance with the present disclosure. For example, viscosity and/or taste of provided compounds can be readily tested. In some embodiments, viscosity was assessed by testing whether a provided compound could readily flow out of a vial or be swirled. In some embodiments, viscosity was assessed by testing whether a provided compound could be administered by direct drinking by a subject. In some embodiments, taste was assessed by testing whether a provided compound could be administered by direct drinking by a subject.
viscosity compared with glycerol (at room temperature),viscosity compared with glycerol (temperature not stated),flow property for formulation (listed as 1-29),Compound,flow property for formulation
lower viscosity than glycerol,lower viscosity than glycerol,,"CCCCCCCC(=O)OCC(COC(=O)CCC(=O)OCC(COC(=O)CCCCCCC)OC(=O)CCCCCCC)OC(=O)CCCCCCC (stereo not shown) [Compound I-30, bis (2,3-bis(octanoyloxy)propyl) succinate]",surprisingly good; also recorded: good flow property for formulation
lower viscosity than glycerol,lower viscosity than glycerol,good flow property for formulation,"CCCC(=O)OCC(COC(=O)CCC(=O)OCC(COC(=O)CCC)OC(=O)CCC)OC(=O)CCC (stereo not shown) [Compound I-29, succinate diglycerol tetra-butyric acid]",surprisingly good
